# In patent US20250230193A1, “CYCLIC COMPOUND HAVING SELECTIVE KRAS INHIBITORY EFFECT ON HRAS AND NRAS” (CHUGAI SEIYAKU KABUSHIKI KAISHA, priority 2022, published 2025):
# How the values were obtained:
# [1] = molecular target: GDP-bound NRAS wild-type protein (Homo sapiens, UniProt P01111); assay: Binding to NRAS by surface plasmon resonance (SPR), Single Cycle Kinetics; settings: KD ratio NRAS/KRAS, SPR, GDP-bound wild-type proteins
# [2] = molecular target: GDP-bound HRAS wild-type protein (Homo sapiens, UniProt P01112); assay: Binding to HRAS by surface plasmon resonance (SPR), Single Cycle Kinetics; settings: KD ratio HRAS/KRAS, SPR, GDP-bound wild-type proteins
# GDP-bound HRAS wild-type protein, sequence (P01112 whole entry): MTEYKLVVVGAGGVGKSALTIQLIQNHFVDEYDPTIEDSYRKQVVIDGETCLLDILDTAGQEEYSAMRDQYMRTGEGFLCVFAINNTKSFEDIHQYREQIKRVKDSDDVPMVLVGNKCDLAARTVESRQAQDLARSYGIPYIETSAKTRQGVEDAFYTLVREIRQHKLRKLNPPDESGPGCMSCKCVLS
# GDP-bound NRAS wild-type protein, sequence (P01111 whole entry): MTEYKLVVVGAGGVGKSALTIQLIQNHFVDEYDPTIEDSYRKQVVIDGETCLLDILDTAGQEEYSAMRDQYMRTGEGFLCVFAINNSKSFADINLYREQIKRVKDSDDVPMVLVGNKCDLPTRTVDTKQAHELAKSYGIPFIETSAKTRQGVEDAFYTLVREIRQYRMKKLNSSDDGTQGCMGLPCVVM
Structure (SMILES),NRAS/KRAS (ratio of KD value with respect to GDP-bound NRAS wild-type protein to KD value with respect to KRAS) [1],HRAS/KRAS (ratio of KD value with respect to GDP-bound HRAS wild-type protein to KD value with respect to KRAS) [2]
CC[C@H](C)[C@@H]1NC(=O)[C@@H]2CCCCCc3ccc(cc3)C[C@@H](C(=O)N(C)CC(=O)N[C@@H](CCc3ccc(C(F)(F)F)c(OC)c3)C(=O)N3C[C@H](OC(C)C)C[C@H]3C(=O)NC3(CC(C)(C)C3)C(=O)N(C)[C@@H](C3CCCC3)C(=O)N(C)[C@H](C(=O)N(C)C)CC(=O)N2C)N2CC/C=C\C[C@@H](C2=O)N(C)C(=O)CN(C)C1=O [PP3072],A (a compound having 10 or more and less than 20 is denoted as A),B (a compound having 3 or more and less than 10 is denoted as B)
CC[C@H](C)[C@@H]1NC(=O)[C@@H]2CCCCCc3ccc(cc3)C[C@@H](C(=O)N(C)CC(=O)N[C@@H](CCc3ccc(C(F)(F)F)c(OC)c3)C(=O)N3C[C@H](OC4CCC4)C[C@H]3C(=O)NC3(CC(C)(C)C3)C(=O)N(C)[C@@H](C3CCCC3)C(=O)N(C)[C@H](C(=O)N(C)C)CC(=O)N2C)N2CC/C=C\C[C@@H](C2=O)N(C)C(=O)CN(C)C1=O [PP3073],A (a compound having 10 or more and less than 20 is denoted as A),A (a compound having 10 or more and less than 20 is denoted as A)
CC[C@H](C)[C@@H]1NC(=O)[C@@H]2CCCCCc3ccc(cc3)C[C@@H](C(=O)N(C)CC(=O)N[C@@H](CCc3ccc(C(F)(F)F)c(OC)c3)C(=O)N3CC4(CC4)C[C@H]3C(=O)NC3(CC(C)(C)C3)C(=O)N(C)[C@@H](C3CCCC3)C(=O)N(C)[C@H](C(=O)N(C)C)CC(=O)N2C)N2CC/C=C\C[C@@H](C2=O)N(C)C(=O)CN(C)C1=O [PP3074],A (a compound having 10 or more and less than 20 is denoted as A),A (a compound having 10 or more and less than 20 is denoted as A)
CCO[C@@H]1C[C@H]2C(=O)NC3(CC(C)(C)C3)C(=O)N(C)[C@@H](C3CCCC3)C(=O)N(C)[C@H](C(=O)N(C)C)CC(=O)N(C)[C@H]3CCCCCc4ccc(cc4)C[C@@H](C(=O)N(C)CC(=O)N[C@@H](CCc4ccc(C(F)(F)F)c(OC)c4)C(=O)N2C1)N1CC/C=C\C[C@@H](C1=O)N(C)C(=O)CN(C1CC1)C(=O)[C@H]([C@@H](C)CC)NC3=O [PP3075],A (a compound having 10 or more and less than 20 is denoted as A),A (a compound having 10 or more and less than 20 is denoted as A)
CCO[C@@H]1C[C@H]2C(=O)NC3(CC(C)(C)C3)C(=O)N(C)[C@@H](C3CCCC3)C(=O)N(C)[C@H](C(=O)N(C)C)CC(=O)N(C)[C@H]3CCCCCc4ccc(cc4)C[C@@H](C(=O)N(C)CC(=O)N[C@@H](CCc4ccc(Cl)c(Cl)c4)C(=O)N2C1)N1CC/C=C\C[C@@H](C1=O)N(C)C(=O)CN(C)C(=O)[C@H]([C@@H](C)CC)NC3=O [PP3076],AA (a compound having 20 or more is denoted as AA),A (a compound having 10 or more and less than 20 is denoted as A)
CCCO[C@@H]1C[C@H]2C(=O)NC3(CC(C)(C)C3)C(=O)N(C)[C@@H](C3CCCC3)C(=O)N(C)[C@H](C(=O)N(C)C)CC(=O)N(C)[C@H]3CCCCc4ccc(cc4)C[C@@H](C(=O)N(C)CC(=O)N[C@@H](CCc4ccc(C(F)(F)F)c(OC)c4)C(=O)N2C1)N1CC/C=C\C[C@@H](C1=O)N(C)C(=O)CN(C)C(=O)[C@H]([C@@H](C)CC)NC3=O [PP3077],A (a compound having 10 or more and less than 20 is denoted as A),B (a compound having 3 or more and less than 10 is denoted as B)
CC[C@H](C)[C@@H]1NC(=O)[C@@H]2CCCCc3ccc(cc3)C[C@@H](C(=O)N(C)CC(=O)N[C@@H](CCc3ccc(C(F)(F)F)c(OC)c3)C(=O)N3C[C@H](OC(C)C)C[C@H]3C(=O)NC3(CC(C)(C)C3)C(=O)N(C)[C@@H](C3CCCC3)C(=O)N(C)[C@H](C(=O)N(C)CC)CC(=O)N2C)N2CC/C=C\C[C@@H](C2=O)N(C)C(=O)CN(C)C1=O [PP3078],A (a compound having 10 or more and less than 20 is denoted as A),B (a compound having 3 or more and less than 10 is denoted as B)
CC[C@H](C)[C@@H]1NC(=O)[C@@H]2CCCCc3ccc(cc3)C[C@@H](C(=O)N(C)CC(=O)N[C@@H](CCc3ccc(C(F)(F)F)c(OC)c3)C(=O)N3C[C@H](OC4CCC4)C[C@H]3C(=O)NC3(CC(C)(C)C3)C(=O)N(C)[C@@H](C3CCCC3)C(=O)N(C)[C@H](C(=O)N(C)CC)CC(=O)N2C)N2CC/C=C\C[C@@H](C2=O)N(C)C(=O)CN(C)C1=O [PP3079],A (a compound having 10 or more and less than 20 is denoted as A),B (a compound having 3 or more and less than 10 is denoted as B)
CC[C@H](C)[C@@H]1NC(=O)[C@@H]2CCCCc3ccc(cc3)C[C@@H](C(=O)N(C)CC(=O)N[C@@H](CCc3ccc(C(F)(F)F)c(OC)c3)C(=O)N3C[C@H](OC4CCCC4)C[C@H]3C(=O)NC3(CC(C)(C)C3)C(=O)N(C)[C@@H](C3CCCC3)C(=O)N(C)[C@H](C(=O)N(C)C)CC(=O)N2C)N2CC/C=C\C[C@@H](C2=O)N(C)C(=O)CN(C)C1=O [PP3080],A (a compound having 10 or more and less than 20 is denoted as A),B (a compound having 3 or more and less than 10 is denoted as B)
CC[C@H](C)[C@@H]1NC(=O)[C@@H]2CCCCc3ccc(cc3)C[C@@H](C(=O)N(C)CC(=O)N[C@@H](CCc3ccc(C(F)(F)F)c(OC)c3)C(=O)N3CC4(CC4)C[C@H]3C(=O)NC3(CC(C)(C)C3)C(=O)N(C)[C@@H](C3CCCC3)C(=O)N(C)[C@H](C(=O)N(C)CC)CC(=O)N2C)N2CC/C=C\C[C@@H](C2=O)N(C)C(=O)CN(C)C1=O [PP3081],A (a compound having 10 or more and less than 20 is denoted as A),B (a compound having 3 or more and less than 10 is denoted as B)
CCCO[C@@H]1C[C@H]2C(=O)NC3(CC(C)(C)C3)C(=O)N(C)[C@@H](C3CCCC3)C(=O)N(C)[C@H](C(=O)N(C)C)CC(=O)N(C)[C@H]3CCCCc4ccc(cc4)C[C@@H](C(=O)N(C)CC(=O)N[C@@H](CCc4ccc(C(F)(F)F)c(OC)c4)C(=O)N2C1)N1CC/C=C\C[C@@H](C1=O)N(C)C(=O)CN(C1CC1)C(=O)[C@H]([C@@H](C)CC)NC3=O [PP3082],B (a compound having 3 or more and less than 10 is denoted as B),B (a compound having 3 or more and less than 10 is denoted as B)
CCCO[C@@H]1C[C@H]2C(=O)NC3(CC(C)(C)C3)C(=O)N(C)[C@@H](C3CCCC3)C(=O)N(C)[C@H](C(=O)N(C)CC)CC(=O)N(C)[C@H]3CCCc4ccc(cc4)C[C@@H](C(=O)N(C)CC(=O)N[C@@H](CCc4ccc(C(F)(F)F)c(OC)c4)C(=O)N2C1)N1CC/C=C\C[C@@H](C1=O)N(C)C(=O)CN(C)C(=O)[C@H]([C@@H](C)CC)NC3=O [PP3083],A (a compound having 10 or more and less than 20 is denoted as A),A (a compound having 10 or more and less than 20 is denoted as A)
CC[C@H](C)[C@@H]1NC(=O)[C@@H]2CCCc3ccc(cc3)C[C@@H](C(=O)N(C)CC(=O)N[C@@H](CCc3ccc(C(F)(F)F)c(OC)c3)C(=O)N3C[C@H](OC(C)C)C[C@H]3C(=O)NC3(CC(C)(C)C3)C(=O)N(C)[C@@H](C3CCCC3)C(=O)N(C)[C@H](C(=O)N(C)CC)CC(=O)N2C)N2CC/C=C\C[C@@H](C2=O)N(C)C(=O)CN(C)C1=O [PP3084],A (a compound having 10 or more and less than 20 is denoted as A),B (a compound having 3 or more and less than 10 is denoted as B)
CC[C@H](C)[C@@H]1NC(=O)[C@@H]2CCCc3ccc(cc3)C[C@@H](C(=O)N(C)CC(=O)N[C@@H](CCc3ccc(C(F)(F)F)c(OC)c3)C(=O)N3C[C@H](OC4CCC4)C[C@H]3C(=O)NC3(CC(C)(C)C3)C(=O)N(C)[C@@H](C3CCCC3)C(=O)N(C)[C@H](C(=O)N(C)CC)CC(=O)N2C)N2CC/C=C\C[C@@H](C2=O)N(C)C(=O)CN(C)C1=O [PP3085],A (a compound having 10 or more and less than 20 is denoted as A),B (a compound having 3 or more and less than 10 is denoted as B)
CC[C@H](C)[C@@H]1NC(=O)[C@@H]2CCCc3ccc(cc3)C[C@@H](C(=O)N(C)CC(=O)N[C@@H](CCc3ccc(C(F)(F)F)c(OC)c3)C(=O)N3C[C@H](OC4CCCC4)C[C@H]3C(=O)NC3(CC(C)(C)C3)C(=O)N(C)[C@@H](C3CCCC3)C(=O)N(C)[C@H](C(=O)N(C)CC)CC(=O)N2C)N2CC/C=C\C[C@@H](C2=O)N(C)C(=O)CN(C)C1=O [PP3086],B (a compound having 3 or more and less than 10 is denoted as B),B (a compound having 3 or more and less than 10 is denoted as B)
CC[C@H](C)[C@@H]1NC(=O)[C@@H]2CCCc3ccc(cc3)C[C@@H](C(=O)N(C)CC(=O)N[C@@H](CCc3ccc(C(F)(F)F)c(OC)c3)C(=O)N3CC4(CC4)C[C@H]3C(=O)NC3(CC(C)(C)C3)C(=O)N(C)[C@@H](C3CCCC3)C(=O)N(C)[C@H](C(=O)N(C)CC)CC(=O)N2C)N2CC/C=C\C[C@@H](C2=O)N(C)C(=O)CN(C)C1=O [PP3087],A (a compound having 10 or more and less than 20 is denoted as A),B (a compound having 3 or more and less than 10 is denoted as B)
